Structures are written as SMILES. Activity calls are given as the source filed them. No cut-off for these calls is given here.

Test system in the first assay: not listed separately
Nature of the assay: Inhibition of Pseudomonas aeruginosa His-6-tagged PqsD expressed in Escherichia coli BL21 (lambdaDE3) using anthraniloyl-CoA/beta-ketodecanoic acid as substrate by LC-MS/MS analysis.
Conditions: not given
With `O=C(Nc1ccccc1C(=O)O)c1ccccc1`, the 50% inhibitory concentration (IC50) entry was “Not Active”.

Consider `N#Cc1cc(Br)ccc1NC(=O)c1ccc(-c2ccccc2)cc1`, for which the concentration for half-maximal inhibition (IC50) entry is “Not Active”.

For the compound `COc1cccc(NC(=O)c2ccc(-c3ccccc3)cc2)c1C(=O)O`, the IC50 entry was “Not Active”.

Consider `O=C(O)c1ccc(Br)c(NC(=O)c2ccc(-c3ccccc3)cc2)c1`, for which the IC50 result is “Not Active”.

Regarding `COC(=O)c1cc(Br)ccc1NC(=O)c1ccc(-c2ccccc2)cc1`, the IC50 entry is reported as “Not Active”.

For the compound `NC(=O)c1cc(Br)ccc1NC(=O)c1ccc(-c2ccccc2)cc1`, the IC50 result is given as “Not Active”.

The assay is the same for the next values; noted with them: read-out: IC50.
As for `O=C(Nc1sccc1C(=O)O)c1ccc(-c2ccccc2)cc1`, the IC50 is 15.7 µM.

As to `O=C(Nc1ccc(F)cc1C(=O)O)c1ccc(-c2ccccc2)cc1`, the IC50 was found to be 15.2 µM.

On to `O=C(Nc1ccccc1C(=O)O)c1ccc(-c2ccccc2)c(Oc2ccccc2)c1`, for which the IC50 stood at 6.6 µM.

With `O=C(Nc1ccc(Br)cc1C(=O)O)c1cccc(Oc2ccccc2)c1`, the IC50 came to 4.4 µM.

`O=C(O)c1cc(Br)ccc1NS(=O)(=O)c1ccc(-c2ccccc2)cc1`: the IC50 stood at 1.3 µM.

`N#Cc1ccc(NC(=O)c2ccc(-c3ccccc3)cc2)c(C(=O)O)c1`: the IC50 is 8.6 µM.

Regarding `O=C(Nc1cc(F)ccc1C(=O)O)c1ccc(-c2ccccc2)c(Oc2ccccc2)c1`, the IC50 stood at 6 µM.

Turning to `O=C(O)c1cc(Br)cc(NC(=O)c2ccc(-c3ccccc3)cc2)c1`, the IC50 was 32.6 µM.

With `O=C(Nc1cc(Cl)ccc1C(=O)O)c1ccc(-c2ccccc2)cc1`, the half-inhibitory concentration (IC50) was 8.7 µM.

As to `O=C(Nc1cc(C(F)(F)F)ccc1C(=O)O)c1ccc(-c2ccccc2)cc1`, the 50% inhibitory concentration (IC50) worked out at 4.9 µM.

Regarding `O=C(Nc1ccc(OC(F)(F)F)cc1C(=O)O)c1ccc(-c2ccccc2)cc1`, the IC50 is 4 µM.

As for `O=C(Nc1cc(Br)ccc1C(=O)O)c1cccc(Oc2ccccc2)c1`, the IC50 was 5.1 µM.

For the compound `O=C(Nc1cc(-c2ccccc2)ccc1C(=O)O)c1cccc(Oc2ccccc2)c1`, the IC50 was found to be 6.6 µM.

As for `O=C(Nc1ccsc1C(=O)O)c1ccc(-c2ccccc2)cc1`, the IC50 is 5.2 µM.

`O=C(Nc1cc(Br)ccc1C(=O)O)c1ccc(-c2ccccc2)cc1`: the IC50 amounted to 3.2 µM.

As for `O=C(Nc1ccc(C(F)(F)F)cc1C(=O)O)c1ccc(-c2ccccc2)cc1`, the IC50 came out at 3.4 µM.

As to `O=C(Nc1ccc(O)cc1C(=O)O)c1ccc(-c2ccccc2)cc1`, the IC50 amounted to 4.2 µM.

As for `O=C(Nc1cscc1C(=O)O)c1ccc(-c2ccccc2)cc1`, the IC50 came to 19.5 µM.

Take `O=C(Nc1c(Cl)cccc1C(=O)O)c1ccc(-c2ccccc2)cc1`: the IC50 was determined as 6.2 µM.

As to `O=C(Nc1ccc(Br)cc1C(=O)O)c1ccc(-c2ccccc2)cc1`, the IC50 is 3.2 µM.

For the compound `O=C(Nc1cc([N+](=O)[O-])ccc1C(=O)O)c1ccc(-c2ccccc2)cc1`, the IC50 was 3.3 µM.

Consider `O=C(Nc1ccc(Cl)cc1C(=O)O)c1ccc(-c2ccccc2)cc1`, for which the IC50 was determined as 3.8 µM.

Take `O=C(Nc1ccc(-c2ccccc2)cc1C(=O)O)c1cccc(Oc2ccccc2)c1`: the IC50 is 7.7 µM.

For `O=C(Nc1cc(Cl)ccc1C(=O)O)c1cccc(Oc2ccccc2)c1`, the half-maximal inhibitory concentration (IC50) is 5.7 µM.

Consider `O=C(Nc1cc(Cl)ccc1C(=O)O)c1ccc(-c2ccccc2)c(Oc2ccccc2)c1`, for which the IC50 came to 5 µM.

`O=C(Nc1cc(F)ccc1C(=O)O)c1ccc(-c2ccccc2)cc1`: the IC50 worked out at 18.2 µM.

Regarding `O=C(Nc1ccc(Br)cc1C(=O)O)c1cccc(Cc2ccccc2)c1`, the IC50 amounted to 5 µM.

In the case of `O=C(Nc1cc(-c2ccccc2)sc1C(=O)O)c1ccc(-c2ccccc2)cc1`, the IC50 stood at 9.8 µM.

The next assay concerns Pseudomonas aeruginosa. The assay can be described thus: Inhibition of Pseudomonas aeruginosa His-6-tagged PqsD expressed in Escherichia coli BL21 (lambdaDE3) using anthraniloyl-CoA/beta-ketodecanoic acid at 50 uM as substrate by LC-MS/MS analysis.
Conditions: not given
The compound `Cc1ccc(NC(=O)c2ccc(-c3ccccc3)cc2)c(C(=O)O)c1` displayed an inhibition of 42%.

With `O=C(Nc1ccc(F)cc1C(=O)O)c1cccc(Oc2ccccc2)c1`, the inhibition worked out at 57%.

In turn, `O=C(Nc1cc(-c2ccc(Cl)cc2)sc1C(=O)O)c1ccc(-c2ccccc2)cc1` returned an inhibition of 35%.

Regarding `COc1ccc(-c2cc(NC(=O)c3ccc(-c4ccccc4)cc3)c(C(=O)O)s2)cc1`, the inhibition worked out at 45%.

In the case of `O=C(Nc1ccccc1C(=O)O)c1cccc(Oc2ccccc2)c1`, the inhibition came out at 37%.

On to `COc1ccc(NC(=O)c2ccc(-c3ccccc3)cc2)c(C(=O)O)c1`, for which the inhibition stood at 46%.

In turn, `O=C(Nc1ccccc1C(=O)O)c1ccc(-c2ccccc2)cc1` showed an inhibition of 55%.

Regarding `COc1cc(NC(=O)c2cccc(Oc3ccccc3)c2)c(C(=O)O)cc1OC`, the inhibition came to 27%.

For `COc1cc(NC(=O)c2ccc(-c3ccccc3)cc2)c(C(=O)O)cc1OC`, the inhibition amounted to 27%.

In turn, `O=C(Nc1cccc(Cl)c1C(=O)O)c1ccc(-c2ccccc2)cc1` yielded an inhibition of 20%.

The compound `O=C(Nc1cccc(F)c1C(=O)O)c1ccc(-c2ccccc2)cc1` had an inhibition of 21%.

Test system in another assay: not listed separately
The assay can be described thus: Inhibition of Escherichia coli RNAP assessed as incorporation of [5,6-3H]UTP preincubated for 10 mins followed by DNA template and ATP, CTP, GTP, UTP, [5,6-3H]UTP addition measured after 10 mins by scintillation counting analysis.
Conditions: not given
Take `N#Cc1cc(Br)ccc1NC(=O)c1ccc(-c2ccccc2)cc1`: the IC50 entry is “Not Active”.

On to `COC(=O)c1cc(Br)ccc1NC(=O)c1ccc(-c2ccccc2)cc1`, for which the IC50 result was “Not Active”.

Take `NC(=O)c1cc(Br)ccc1NC(=O)c1ccc(-c2ccccc2)cc1`: the IC50 result is listed as “Not Active”.

Still in this assay, the particulars now being: read-out: IC50.
In the case of `O=C(Nc1sccc1C(=O)O)c1ccc(-c2ccccc2)cc1`, the IC50 amounted to 161 µM.

With `CCN(CC)S(=O)(=O)c1cccc(C(=O)Nc2ccc(-c3ccc(C(N)=O)cc3)cc2C(=O)O)c1`, the IC50 came out at 78 µM.

In the case of `O=C(Nc1cc(-c2ccc(Cl)cc2)sc1C(=O)O)c1ccc(-c2ccccc2)cc1`, the IC50 is 13 µM.

For `O=C(O)c1cc(Br)ccc1NS(=O)(=O)c1ccc(-c2ccccc2)cc1`, the 50% inhibitory concentration (IC50) amounted to 35 µM.

Consider `COc1ccc(-c2cc(NC(=O)c3ccc(-c4ccccc4)cc3)c(C(=O)O)s2)cc1`, for which the half-inhibitory concentration (IC50) stood at 9 µM.

For `O=C(O)c1cc(Br)cc(NC(=O)c2ccc(-c3ccccc3)cc2)c1`, the IC50 is 110 µM.

With `O=C(Nc1cc(-c2ccccc2)sc1C(=O)O)c1ccc(-c2ccccc2)cc1`, the IC50 turned out to be 10 µM.

Another assay has as its system Escherichia coli. Nature of the assay: Inhibition of Escherichia coli RNAP assessed as incorporation of [5,6-3H]UTP at 100 uM preincubated for 10 mins followed by DNA template and ATP, CTP, GTP, UTP, [5,6-3H]UTP addition measured after 10 mins by scintillation counting analysis.
Conditions: not given
Consider `CCN(CC)S(=O)(=O)c1cccc(C(=O)Nc2ccc(F)cc2C(=O)O)c1`, for which the inhibition entry is “inactive”.

Regarding `CCN(CC)S(=O)(=O)c1cccc(C(=O)Nc2ccc(-c3ccccc3)cc2C(=O)O)c1`, the inhibition entry was “inactive”.

Take `CCN(CC)S(=O)(=O)c1cccc(C(=O)Nc2cc(Cl)ccc2C(=O)O)c1`: the inhibition entry was “inactive”.

As for `CCN(CC)S(=O)(=O)c1cc(C(=O)Nc2ccc(F)cc2C(=O)O)ccc1Br`, the inhibition entry was “inactive”.

For the compound `CCN(CC)S(=O)(=O)c1cccc(C(=O)Nc2ccc([N+](=O)[O-])cc2C(=O)O)c1`, the inhibition turned out to be 30%.

Another assay deals with Escherichia coli. Nature of the assay: Inhibition of Escherichia coli RNAP assessed as incorporation of [5,6-3H]UTP at 50 uM preincubated for 10 mins followed by DNA template and ATP, CTP, GTP, UTP, [5,6-3H]UTP addition measured after 10 mins by scintillation counting analysis.
Conditions: not given
As to `CCN(CC)S(=O)(=O)c1cc(C(=O)Nc2ccc(Br)cc2C(=O)O)ccc1Br`, the inhibition result was “inactive”.

Another assay concerns Escherichia coli. The assay can be described thus: Inhibition of Escherichia coli RNAP assessed as incorporation of [5,6-3H]UTP at 200 uM preincubated for 10 mins followed by DNA template and ATP, CTP, GTP, UTP, [5,6-3H]UTP addition measured after 10 mins by scintillation counting analysis.
Conditions: not given
As for `CCN(CC)C(=O)c1cccc(C(=O)Nc2ccccc2C(=O)O)c1`, the inhibition entry is “inactive”.

`CCc1ccc(C(=O)Nc2ccccc2C(=O)O)cc1S(=O)(=O)N(CC)CC`: the inhibition entry is “inactive”.

For the compound `CN(C)S(=O)(=O)c1cccc(C(=O)Nc2ccccc2C(=O)O)c1`, the inhibition entry is “inactive”.

Consider `O=C(Nc1ccccc1C(=O)O)c1cccc(S(=O)(=O)N2CCCCCC2)c1`, for which the inhibition entry is “inactive”.

As for `O=C(Nc1ccccc1C(=O)O)c1cccc(S(=O)(=O)N2CCOCC2)c1`, the inhibition entry is “inactive”.

For the compound `NS(=O)(=O)c1cccc(C(=O)Nc2ccccc2C(=O)O)c1`, the inhibition entry is “inactive”.

For the compound `CCN(CC)S(=O)(=O)c1ccc(C(=O)Nc2ccccc2C(=O)O)cc1`, the inhibition result was “inactive”.

For `CCN(CC)S(=O)(=O)c1cccc(C(=O)Nc2ccc(-c3cccc(C(=O)O)c3)cc2C(=O)O)c1`, the inhibition worked out at 24%.

On to `CCN(CC)S(=O)(=O)c1ccc(C(=O)Nc2ccc(Br)cc2C(=O)O)cc1`, for which the inhibition was found to be 28%.

Consider `CCN(CC)S(=O)(=O)c1cccc(C(=O)Nc2cccc(F)c2C(=O)O)c1`, for which the inhibition result was “inactive”.

Take `CCN(Cc1ccccc1)S(=O)(=O)c1cccc(C(=O)Nc2ccccc2C(=O)O)c1`: the inhibition was determined as 29%.

Take `CCN(CC)S(=O)(=O)c1cccc(C(=O)Nc2cc(F)ccc2C(=O)O)c1`: the inhibition entry was “inactive”.

In the case of `CCN(CC)S(=O)(=O)c1cccc(C(=O)Nc2ccccc2C(=O)O)c1`, the inhibition entry is “inactive”.

Take `CCN(CC)S(=O)(=O)c1cc(C(=O)Nc2ccccc2C(=O)O)ccc1C`: the inhibition result is “inactive”.

For the compound `O=C(Nc1ccsc1C(=O)O)c1ccc(-c2ccccc2)cc1`, the inhibition was determined as 28%.

As for `CCN(CC)S(=O)(=O)c1cccc(C(=O)Nc2cc([N+](=O)[O-])ccc2C(=O)O)c1`, the inhibition entry is “inactive”.

Turning to `O=C(Nc1cscc1C(=O)O)c1ccc(-c2ccccc2)cc1`, the inhibition is 33%.

In the case of `O=C(O)c1ccc(Br)c(NC(=O)c2ccc(-c3ccccc3)cc2)c1`, the inhibition was 25%.

In the case of `O=C(Nc1ccccc1C(=O)O)c1cccc(S(=O)(=O)N2CCCCC2)c1`, the inhibition result is “inactive”.

`CCN(CC)S(=O)(=O)c1cccc(C(=O)Nc2ccc(C#N)cc2C(=O)O)c1`: the inhibition result was “inactive”.

In the case of `CCN(CC)S(=O)(=O)c1cccc(C(=O)Nc2cccc(O)c2C(=O)O)c1`, the inhibition entry is “inactive”.

For the compound `CCN(CC)S(=O)(=O)c1cccc(C(=O)Nc2cccc(OC)c2C(=O)O)c1`, the inhibition entry was “inactive”.

For `CCN(CC)S(=O)(=O)c1cccc(C(=O)Nc2ccc(-c3cccc(C(N)=O)c3)cc2C(=O)O)c1`, the inhibition was 45%.

Take `CCN(CC)S(=O)(=O)c1cccc(C(=O)Nc2ccc(C)cc2C(=O)O)c1`: the inhibition entry was “inactive”.

For `CCCN(CCC)S(=O)(=O)c1cccc(C(=O)Nc2ccccc2C(=O)O)c1`, the inhibition entry was “inactive”.

Take `CCN(CC)S(=O)(=O)c1cccc(C(=O)Nc2cccc(Cl)c2C(=O)O)c1`: the inhibition entry was “inactive”.

As for `CCN(CC)C(=O)c1cccc(C(=O)Nc2ccc(Br)cc2C(=O)O)c1`, the inhibition entry is “inactive”.

In the case of `CCN(CC)S(=O)(=O)c1cc(C(=O)Nc2ccccc2C(=O)O)ccc1Br`, the inhibition entry was “inactive”.

For `O=C(Nc1ccccc1C(=O)O)c1cccc(S(=O)(=O)N2CCCC2)c1`, the inhibition entry is “inactive”.
